Reference: patent US10351519B2, “Sulfamate derivative compounds, processes for preparing them and their uses” (BIO-PHARM SOLUTIONS CO., LTD., priority 2016, dated 2019)

Legend:
Assay type in all cases: in vivo
ICR mice [1] = assay: Chemical induced seizure model (PIC, picrotoxin); conditions: for ED50: Mus musculus, ip
Method: Picrotoxin (PIC) were used to induce the behavioral seizures in the experiments. Male ICR mice (purchased from Orient Bio Inc. Korea) of body weight 19-26 g (mice) were used for these studies. The test materials were administered intraperitoneal (ip) route in a volume of 10 ul/g (mice) weight in mice, respectively. Pharmacological effects of the test materials were evaluated to compared test groups (n=6) with a control group (n=6). Control group was administrated vehicle, only. The peak time was determined by administration of test material's random dose for 0.5, 1, 2, 4 hour. The time that the most protect was defined as a peak time and ED50 was determined by other dose administration at the peak time. Chemical (PIC) was dissolved in 0.9% saline and administered subcutaneously (s.c.) at its CD97 (convulsive dose 97%), the dose of Chemical (PIC) that produced clonic seizures in 97% into a loose fold of skin in the midline of the neck in a volume of 10 ul/g (mice) body weight. The animals were then transferred to observation cages and observed continuously for 45 min (PIC). Clonic seizure was elicited in approximately 97% of control group. Protection was defined as a complete absence of clonic seizure over the 45-min observation period. The effective dose of compound necessary to protect against generalized convulsive seizures to 50% of controls (i.e. ED50) was determined by log probit analysis using SPSS software program (SPSS Inc.). (Reference; White H. S., J. H. Woodhead, K. S. Wilcox, J. P. Stables, H. J. Kupferberg, and H. H. Wolf. General Principles; Discovery and Preclinical De-velopment of Antiepileptic Drugs. In: R. H. Levy, R. H. Mattson, B. S. Meldrum, and E. Perucca, eds. Antiepileptic Drugs, 5th Ed. Lippincott Williams & Wilkins, Philadelphia 2002: pp. 36-48.) The obtained results are shown in following Table 10.

ICR mice [2] = assay: Anti-epilepsy activity, MES test, mouse; conditions: for ED50: po
Method in brief: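 Maximal electroshock delivered through corneal electrodes at 60 Hz for 0.2 s: 50 mA for male ICR mice (19–25 g), 150 mA for male SD rats (100–130 g). Compounds given orally in 30% PEG 400 or 20% Tween 80 in saline, tested at peak time, three doses per compound. ED50 for seizure protection derived by Litchfield–Wilcoxon log-probit analysis.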

SD rats [3] = assay: Anti-epilepsy activity, scPTZ test, rat; conditions: for ED50: Rattus norvegicus, ip
From the text: In this experiment, each test compound sample was formulated as described in Biological Experimental Example I, and administered intraperitoneally to the test animals (mice; ICR or Rat; SD); Experimental animals, male ICR mice and male SD rats, were purchased from OrientBio or Nara biotech, Korea, and housed 4-5 mice per a cage for 4-5 days. The range of mice body weight was used between 19 and 26 grams and range of rats body weight was used between 100 and 130 grams. After Peak time (0.5, 1, 2 and 4 hr) from the administration, PTZ (Pentylenetetrazol) was administered subcutaneously in the concentration capable of inducing 97% intermittent convulsions (mice: 76-110 mg/kg·bw, 10 μl/g, or rats: 79-110 mg/kg·bw, 2 μl/g). If clonic seizure was not observed for at least 30 minutes in the PTZ administered animal, it can be considered that the test compound has anti-epilepsy activity. The median effective dose (ED50) is determined using 6 animals per a concentration (total three different concen-trations), and calculated by Litchfield and Wicoxon log-probit method which is a dose-response relationship.

SD rats [4] = assay: Anti-epilepsy activity, MES test, rat; conditions: for ED50: Rattus norvegicus, po
Method: In the MES test (Ref., G. Villetti et al. Neuropharmacology 40 (2001) 866-878), an electrical stimulus (mice: 50 mA, 60 Hz, 0.2 sec, and rats: 150 mA, 60 Hz, 0.2 sec in the test animal) supplied by an 11A Shocker (IITC Life Science Company) was delivered through corneal electrodes. All mice or rats assigned to any electroshock at peak time were treated with each test compound sample which was dissolved in 30% PEG 400 or 20% tween 80 prepared by saline solvent applied orally before the test. […] Three doses of the test sample were administered orally to 9-18 animals (3-6 mice per dose) for evaluating the respective doses at which 50% of the animals were protected from seizure (ED50). The ED50 value (median effective dose) was calculated by Litchfield and Wicoxon log-probit method which is a dose-response relationship. Experimental animals, male ICR mice and male SD rats, were purchased from OrientBio, Samtako, or Nara Biotech, Korea, and housed in cages (4-5 mice or 3 rats per cage) for 4-5 days. The range of mice body weight was between 19 and 25 grams and range of rats body weight was between 100 and 130 grams.

Sprague-Dawley rats = assay: Lithium-pilocarpine induced epilepsy test, prevention; conditions: for ED50: Rattus norvegicus, ip, read-out: Lithium pilocarpine model (pre) ED50; for Lithium pilocarpine model (pre) peak time: i.p.
Method: Male Sprague-Dawley rats (purchased from Orient Bio Inc. Korea) of body weight 175-200 grams were used for these studies and 3 rats per cage were housed for 4-5 days. On the day prior to SE, rats received 127 mg/kg lithium chloride (Sigma, St. Louis, Mo., U.S.A.) intraperitoneally (i.p.). Approximately 18-20 h following this treatment, rats were given an i.p. injection of CD97 dose (30-43 mg/kg) pilocarpine (Sigma). An i.p. injection of 2 mg/kg methyl-scopolamine (Sigma) was administered 30 min prior to pilocarpine to block the effects of the muscarinic agonist on peripheral cholinergic receptors. Test drugs were dissolved in 30% PEG 400 or 20% tween80 (Sigma).
The drugs were administered intraperitoneally (i.p.) in a volume of 2 ul/g body weight. Pharmacological effects of all of the test materials were evaluated to compare test groups (n=6) with a control group (n=6). Control group was administered vehicle only. The efficacy was measured 0.5, 1, 2, or 4 hours after the administration of the test material. The time point that the most animals were protected was defined as peak time and the ED50 was determined at peak time. The animals were then transferred to observation cages and observed continuously for 90 min. Seizure was elicited in approximately 95% of the control group. Protection was defined as complete absence of seizure grade 3-5 (Racine scale; Racine, 1972) over the 90-min observation period. The effective dose of the compound necessary to protect 50% of the animals against seizures compared to controls (i.e. ED50) was determined by a curve fitting program (Excel 2007, Microsoft).

SMILES | PIC(ip) Peak Time (ICR mice [1]) [h] | ED50 (ICR mice [1]) [mg/kg] | MES test (po) Peak time (ICR mice [2]) [h] | ED50 (ICR mice [2]) [mg/kg] | scPTZ test (ip) Peak time (SD rats [3]) | scPTZ test (ip) efficacy % (SD rats [3]; 40 mg/kg) [%] | MES test (po) Peak time (SD rats [4]) | ED50 (SD rats [4]) [mg/kg] | ED50 (Sprague-Dawley rats) [mg/kg] | Lithium pilocarpine model (pre) peak time (Sprague-Dawley rats) | ED50 (SD rats [3]) [mg/kg]
C[C@@H](OS(N)(=O)=O)[C@H](O)c1ccccc1Cl [Example 2, (1R, 2R)-1-(2-chlorophenyl)-1-hydroxypropan-2-yl sulfamate] | 1 | 24.1 | 2 | 22.8 | 1 h | 33.3 | (2 h) | 5 |  |  | 
C[C@H](OS(N)(=O)=O)[C@@H](O)c1c(Cl)cccc1Cl [Example 7, (1S, 2S)-1-(2,6-dichlorophenyl)-1-hydroxypropan-2-yl sulfamate] | 0.5 | 28.5 | 1 | 40.7 | (0.5 h) |  | (2 h) | 23.5 | 23.3 | (0.5 h) | 10
C[C@@H](OS(N)(=O)=O)[C@H](O)c1c(Cl)cccc1Cl [Example 8, (1R, 2R)-1-(2,6-dichlorophenyl)-1-hydroxypropan-2-yl sulfamate] | 1 | 73.9 | 2 | 27.9 | (1 h) |  | (1 h) | 24 | 29.3 | (2 h) | 15.3
COCO[C@H](c1ccccc1Cl)[C@@H](C)OS(N)(=O)=O [Example 70, (1R, 2R)-1-(2-chlorophenyl)-1-(methoxymethoxy)propan-2-yl sulfamate] |  |  | 2 | 50.5 | (1 h) |  | (1 h) | 46.6 | 100 | (0.5 h) | 36
